The source of these data is publication PMC6530361, “Anti-tumor Efficacy Assessment of the Sigma Receptor Pan Modulator RC-106. A Promising Therapeutic Tool for Pancreatic Cancer” (Frontiers in Pharmacology, 2019).

In series [1] the test system is Capan-2. Put plainly: Western Blot of caspase 3 and 9 activation. The class given is cell-based. The following applies: Capan-2, 48 h, 25 μM. Here is the method:
(§1) Western Blot were performed as previously described ([Arienti et al., 2016]). Briefly, Cell proteins were extracted with M-PER (Thermo Fisher Scientific) supplemented with Halt Protease Phosphatase Inhibitor Cocktail (Thermo Fisher Scientific).
(§2) Mini-PROTEANTGX^TM precast gels (4–20% and any kD; BIO-RAD) were run using Mini-PROTEAN Tetra electrophoresis cells and then electroblotted by Trans-Blot Turbo^TM Mini PVDF Transfer Packs (BIORAD). The unoccupied membrane sites were blocked with T-TBS 1X (Tween 0.1%) and 5% non-fat dry milk to prevent non-specific binding of antibodies and probed with specific primary antibodies overnight at 4°C. This was followed by incubation with the respective secondary antibodies. The antibody-antigen complexes were detected with Immun-Star^TM WesternC^TM kit (BIO-RAD).
(§3) The following primary antibodies were used: anti-sigma receptor (S18): sc-22948 (Santa Cruz Biotechnology inc.), anti-TMEM97, anti-caspase-3, and anti-caspase-9. Anti-vinculin (sc-5573) from Santa Cruz Biotechnology and anti-actin from Sigma Aldrich Inc., were used as housekeeping. Quantity One Software was used for analysis.
(A western blot detects proteins with antibodies after separation by electrophoresis.)

Series [2] concerns Panc-1. Put plainly: Western Blot of caspase 3 and 9 activation. The class given is cell-based. The following applies: Panc-1, 48 h, 25 μM. Here is the method:
as §1, §2, §3

The test system of series [3] is Capan-1. Put plainly: Western Blot of caspase 3 and 9 activation. The class given is cell-based. The following applies: Capan-1, 12 h, 50 μM. The procedure: as §1, §2, §3
Series [4] can be described thus: In vivo pancreas distribution study. The arrangement: species or system male CD-1 mice. Particulars: male, CD-1, mouse, ip, mice. The procedure: The experiments were performed in agreement with the Italian Law D. L.vo 4 marzo 2014, n. 26. The treatments involved male CD-1 mice and a unique number on the tail identified each animal. Mice were housed, in groups of four, in cages suitable for the species. After 5 days of adaptation to the local housing conditions, animals were housed in a single, exclusive, air-conditioned room to provide a minimum of 15 air changes/hour. The environmental controls were set to maintain the temperature at around 22°C and the relative humidity within the range 50 to 60%, along with an approximate 12:12 h light/dark cycle automatically controlled. Food (Mucedola Standard GLP diet) and water were available ad libitum throughout the entire duration of the study. All animals were weighted on the day of the treatment.
Mice (n = 4/time point) received an intraperitoneal administration (i.p., 10 mL/kg) of RC-106 at 10 mg/kg. CD-1 male mice were exsanguinated under anesthesia (isoflurane) from the aorta at the following time points: 5, 10, 30, 120, 240, and 480 min. Blood samples were collected in tubes containing heparin, gently mixed and immediately placed on ice. Afterward, they have been centrifuged (3500 × g, at 4°C for 15 min), the obtained plasma has been collected and transferred to individually labeled tubes and frozen at -20°C until the analysis. Plasma samples were used for quantification of RC-106. […] The organ was homogenized using a Velp OV5 homogenizer with 20 mM ammonium formiate buffer in a ratio of 1 g of tissue per 10 mL of buffer.
20 mg/mL stock solution (s.s.) of RC-106 was prepared by dissolving the compound in DMSO. 1 mL of 5% Tween80 in H2O was slowly added to 500 μL of s.s. under stirring. Then 8.5 mL of water was gently spiked to obtain the 1 mg/mL formulation of RC-106.
Standard curves of RC-106 were prepared for plasma and pancreas homogenate, and analyzed together with each QC and unknown sample set. For the PK and pancreas distribution sample analysis, plasma and pancreas homogenate samples (50 μL) were spiked in 200 μL of IS in MeOH (0.1 μg/mL of RC-33), followed by 2 min vortex mixing. Samples were centrifuged and transferred in UFLC vials. 5 μL aliquots of the collected samples were injected into the LC-MS/MS system. Standard calibration graphs were constructed by linear least-squares regression analysis on the analyte/IS area ratio plotted against sample concentration. Calibration ranges were from 5 to 1000 ng/mL for plasma, and from 5 to 500 ng/mL for pancreas homogenate. Accuracy values were determined in triplicates at three different concentrations (high, medium, and low) in the range of linearity of the calibration curves.
Analyses were acquired on a Shimadzu AC20 UFLC system interfaced with an API 3200 Triple Quadrupole detector (AB Sciex). Data acquisition and control were performed using the Analyst^TM 6.1 (Applied Biosystems) Software. A Phenomenex Gemini-NX C18 (50 mm × 2 mm, 5 μm) column was selected to carry out the analytical evaluations. A gradient method was set up (Supplementary Table S1) and it provided the employment of water and methanol, both containing 0.1% of formic acid, at a flow rate of 0.3 mL/min. The LC eluate was directly introduced into the MS interface using the ESI in the positive ion mode. The MRM transitions m/z 181.2 were tracked (Supplementary Table S2).

The test system of series [5] is Panc-1, Capan-1, and Capan-2. The series is described as follows: Real-Time qRT-PCR of ER stress/UPR marker genes, all cell lines. It is filed as cell-based. Particulars: exposure to 50 μM; 6, 12, and 24 h. Here is the method: Total cellular RNA was extracted using TRIzol reagent (Life technologies) in accordance with manufacturer’s instruction and quantified using the Nanodrop MD-1000 spectrophotometer system. Reverse transcription reactions were performed in 20 μL of nuclease free water containing 400 ng of total RNA using iScript cDNA Synthesis kit (Bio-Rad Laboratories, Hercules, CA). Real-Time PCR was run using 7500 Fast Real-Time PCR system (Applied Biosystems) and TaqMan assays to detect the expression of SIGMAR1, TMEM97, GRP78/BiP, ATF4, and CHOP genes.
Reactions were carried out in triplicate at a final volume of 20 μL containing 40 ng of cDNA template, TaqMan universal PCR Master Mix (2X), and selected TaqMan assays (20X). Samples were maintained at 50°C for 2 min, then at 95°C for 10 min followed by 40 amplification cycles at 95°C for 15 s, and at 60°C for 30 s.
The amount of mRNA was normalized to the endogenous genes GAPDH and HPRT-1.
(In general: Quantitative PCR measures a nucleic acid by following its amplification.)

Read-outs that look alike come from different tables or passages of the source.

As usually defined, the melting point is the temperature of the solid-liquid transition. What is called Tmax is the time from dosing to the highest level. By Cmax is commonly meant the maximum level reached in the sampled fluid or tissue. The compound `C/C(=C\CN1CCC(Cc2ccccc2)CC1)c1ccc2ccccc2c1` [RC-106, (E)-4-benzyl-1-(3-(naphthalen-2-yl)but-2-en-1-yl)piperidine] registered a melting point of 221 to 222 °C. The “caspases 3 and 9 cleavage” value in series [1] is given as “cleaved”. Besides, the “caspases 3 and 9 cleavage” value in series [2] is “cleaved”. Further, the “caspases 3 and 9 cleavage” value in series [3] is recorded as “cleaved”. Besides, in series [4] (pancreas, 10 mg/kg, i.p., 10 mg/kg, read-out: AUC0-t, pancreas (converted)), the AUC(0-t) was 28800 ng·h/mL. The concentration at 5 min in series [4] (pancreas, 5 min after i.p. 10 mg/kg, read-out: pancreas C) is 25300 ng/g. In addition, in series [4] (pancreas, 10 min after i.p. 10 mg/kg, read-out: pancreas C), the concentration at 10 min is 13900 ng/g. Also, the concentration at 30 min in series [4] (pancreas, 30 min after i.p. 10 mg/kg, read-out: pancreas C) was determined as 11100 ng/g. The concentration at 120 min in series [4] (pancreas, 120 min after i.p. 10 mg/kg, read-out: pancreas C) is 2710 ng/g. Also, in series [4] (pancreas, 240 min after i.p. 10 mg/kg, read-out: pancreas C), the concentration at 240 min amounted to 2310 ng/g. Further, in series [4] (pancreas, 480 min after i.p. 10 mg/kg, read-out: pancreas C), the concentration at 480 min was 995 ng/g. In addition, in series [4] (pancreas, 10 mg/kg), the time to peak (Tmax) was 5 min. Moreover, in series [4] (pancreas, i.p., 10 mg/kg, read-out: Cmax, pancreas), the Cmax is 25300 ± 5600 ng/g. In addition, the highest concentration (Cmax) in series [4] (pancreas, i.p., 10 mg/kg, read-out: Cmax, pancreas (molar)) is around 70 µM. For the same compound, the half-life in series [4] (pancreas, i.p., 10 mg/kg, read-out: t1/2, pancreas) worked out at 4 h. The Kp in series [4] (pancreas/plasma, 10 mg/kg, i.p., 10 mg/kg, read-out: AUC0-t pancreas/AUC0-t plasma) was around 25. Moreover, the “mRNA expression of ER markers GRP78/BiP, ATF4, and CHOP” value in series [5] was “highly increased”.
